In publication PMC5590070, “Anti-Inflammatory, Antioxidant, Antibiotic, and Cytotoxic Activities of Tanacetum vulgare L. Essential Oil and Its Constituents” (Medicines, 2017):
Converted amounts (≈) assume the structure as drawn. Where two headings read alike, the source gives them in different places.

Key:
[1] = test system: human skin fibroblasts WS1; assay: Cell-based antioxidant DCFH-DA assay (tert-butylhydroperoxide-induced DCFH oxidation); conditions: inhibition of DCFH oxidation induced by tert-butylhydroperoxide, WS1 cells; for IC50: Homo sapiens
Protocol: Antioxidant activity was evaluated using the DCFH-DA assay as described by Girard-Lalancette et al.. To assess antioxidant activity, we incubated the human skin fibroblasts WS1 for 1 h with a growing concentration of essential oil or dissolved compounds in DMSO. We then added 100 µL of 200 µM tert-butylhydroperoxide and immediately measured fluorescence as well as again after 90 min later. Measurements were performed on an automated plate reader (Fluoroskan Ascent FL, Labsystems, Milford, MA, USA) using an excitation wavelength of 485 nm and an emission wavelength of 530 nm.

[2] = test system: Staphylococcus aureus (ATCC 25923); assay: Antibacterial hydrophobic assay (resazurin); format: cell-based
From the text: (§1) We tested the antibacterial activities of T. vulgare essential oil and compounds against gram-negative Escherichia coli (ATCC bacteria 25922) and gram-positive Staphylococcus aureus (ATCC bacteria 25923) using the antibacterial hydrophobic assay as described by Côté et al.. This new method was developed and used in this work as classical methods including disc diffusion and microdilution assays are sometimes inefficient for testing a matrix or compounds of a hydrophobic nature. Briefly, after microorganisms passed 16–18 h at 37 °C in a nutrient broth base (Difco), we transferred 20 µL methanol containing growing concentrations of essential oil and compounds (3.1 to 200 µg·mL^−1) onto nutrient agar of 96-well plates. We then added bacterial strains having a concentration of 5 × 10^3 colony forming units (CFU) per mL of nutrient broth. […] The blank consisted of culture medium only and was subtracted from all subsequent measurements of every other well. The 96-well plates were then incubated at 37 °C for 5 h to foster bacterial growth. We then added 100 µL of resazurin sodium salt solution having a concentration of 50 µg·mL^−1 (Sigma R-2127, St-Louis, MO, USA) to each well.

[3] = test system: Escherichia coli (ATCC 25922); assay: Antibacterial hydrophobic assay (resazurin); format: cell-based
From the text: as §1

in vitro = conditions: human
Protocol: (§2) We plated in 96-well microplates—each containing a 100 µL culture medium—exponentially growing cells of human skin fibroblasts WS1, human HaCaT keratinocytes, human lung carcinoma A-549, and human colon adenocarcinoma DLD-1 at a density of 5 × 10^3 cells per well (Costar, Corning Inc., Lowell, MA, USA). The cells were allowed to adhere for 16 h before treatment. We then treated cells with T. vulgare essential oil or dissolved compounds in DMSO. The final concentration of DMSO in the culture medium was 0.5% (v/v) to avoid solvent toxicity. After 48 h, we assessed the cytotoxicity using the resazurin reduction test. Fluorescence was measured on an automated Fluoroskan Ascent FL^TM plate reader (Labsystems, Milford, MA, USA) using an excitation wavelength of 530 nm and an emission wavelength of 590 nm.
We assessed the cytotoxic activity of T. vulgare essential oil and its main compounds against human lung carcinoma A-549, colon adenocarcinoma DLD-1, human keratinocytes HaCaT, and healthy WS1 cell lines.

[4] = Cytotoxic assay, resazurin reduction test, 48 h; format: cell-based, human; conditions: human
Protocol: as §2

[5] = test system: NO production in murine macrophage RAW 264.7 cells; assay: Inhibition of NO production in LPS-stimulated RAW 264.7 macrophages (Griess reaction); format: cell-based; conditions: for IC50 / Anti-Inflammation IC50: inhibition of NO production, RAW 264.7, 100 ng·mL^−1 LPS, 24 h; for IC50: read-out: Anti-Inflammation IC50
Protocol: We evaluated the inhibition NO production by T. vulgare essential oil and compounds as described by Legault et al.. Control L-NAME was used as positive control. Murine macrophage RAW 264.7 cells were incubated with essential oil or dissolved compounds in DMSO and then stimulated with 100 ng·mL^−1 LPS and incubated at 37 °C. After 24 h, we collected the cell-free supernatants and immediately determined the NO concentration using the Griess reaction. We read the absorbance at 540 nm using an automated Varioskan Ascent plate reader (Labsystems, Milford, MA, USA), and quantified the presence of nitrite by comparing with a NaNO2 standard curve.

[6] = test system: human colon adenocarcinoma DLD-1; assay: Cytotoxic assay, resazurin reduction test, 48 h; format: cell-based; conditions: DLD-1, 48 h
Protocol: as §2

[7] = test system: human skin fibroblasts WS1; assay: Cytotoxic assay, resazurin reduction test, 48 h; format: cell-based; conditions: WS1, 48 h
Protocol: as §2

[8] = test system: human lung carcinoma A-549; assay: Cytotoxic assay, resazurin reduction test, 48 h; format: cell-based; conditions: A-549, 48 h
Protocol: as §2

[9] = Staphylococcus aureus, ATCC25923, S. aureus, 50% inhibition of bacterial growth
[10] = Escherichia coli, ATCC25922, E. coli, 50% inhibition of bacterial growth
[11] = A-549 lung carcinoma cells, A-549, 48 h, read-out: Cytotoxicity IC50 A549
[12] = DLD-1 colon adenocarcinoma cells, DLD-1, 48 h, read-out: Cytotoxicity IC50 DLD1
[13] = WS1 skin fibroblasts, WS1, 48 h, read-out: Cytotoxicity IC50 WS1
[14] = S. aureus, 50% inhibition of bacterial growth
[15] = E. coli, 50% inhibition of bacterial growth
[16] = Staphylococcus aureus, ATCC25923, read-out: Antibacterial IC50 S. aureus
[17] = Escherichia coli, ATCC25922, read-out: Antibacterial IC50 E. coli
[18] = A-549, 48 h, read-out: Cytotoxicity IC50 A549
[19] = DLD-1, 48 h, read-out: Cytotoxicity IC50 DLD1
[20] = WS1, 48 h, read-out: Cytotoxicity IC50 WS1

IC50 [2, 9] [µg/mL] | IC50 [3, 10] [µg/mL] | IC50 at 48 h (in vitro) [µg/mL] | IC50 ([5]; Mus musculus, RAW264.7) [µg/mL] | SMILES | IC50 [1] [µg/mL] | IC50 at 48 h [4, 11] [µg/mL] | IC50 at 48 h [4, 12] [µg/mL] | IC50 at 48 h [4, 13] [µg/mL] | also measured
> 200 | > 200 | > 200 | > 200 | CC12CCC(CC1)C(C)(C)O2 [1,8-Cineole] | > 200 | > 200 | > 200 | > 200 | 
> 200 | > 200 | > 200 | > 200 | CC1(C)C2CCC1(C)C(O)C2 (stereo not shown) [Borneol] | > 200 | > 200 | > 200 | > 200 | 
> 200 | > 200 |  | > 200 | CC(=O)OC1CC2CCC1(C)C2(C)C (stereo not shown) [Bornyl acetate] | > 200 | > 200 | > 200 | > 200 | 
> 200 | > 200 | 28 to 112 (≈ 206 to 822 µM) | > 200 | C=C1C2CCC(C2)C1(C)C (stereo not shown) [Camphene] | > 200 | 72 ± 2 | 75 ± 5 | 49 ± 1 | 
22 to 26 (≈ 145 to 171 µM) | 22 to 26 (≈ 145 to 171 µM) | > 200 | > 200 | CC12CCC(CC1=O)C2(C)C (stereo not shown) [Camphor] | > 200 | > 200 | > 200 | > 200 | Antibacterial IC50 S. aureus [2, 14]: 26 ± 3 µg/mL; Antibacterial IC50 E. coli [3, 15]: 22 ± 1 µg/mL
 |  |  |  | C=C1CC[C@H]2O[C@]2(C)CC[C@@H]2[C@@H]1CC2(C)C [Caryophyllene oxide] |  |  |  |  | Antioxidant IC50 [1]: 6.2 ± 0.5 µg/mL; Antibacterial IC50 S. aureus [2, 14]: 10.4 ± 0.9 µg/mL; Antibacterial IC50 E. coli [3, 15]: 97 ± 2 µg/mL; Cytotoxicity IC50 DLD1 [6]: 43 ± 3 µg/mL; Cytotoxicity IC50 WS1 [7]: 50 ± 4 µg/mL; Cytotoxicity IC50 A549 [8]: 36 ± 2 µg/mL; Anti-Inflammation IC50 [5]: 183 ± 15 µg/mL
 |  |  |  | O=C(N[C@H](CO)[C@H](O)c1ccc([N+](=O)[O-])cc1)C(Cl)Cl [Chloramphenicol, reference compound] |  |  |  |  | MIC90 ([2]; Staphylococcus aureus, ATCC25923, S. aureus, antibiotic positive control): 0.73 µg/mL (≈ 2.26 µM); MIC90 ([3]; Escherichia coli, ATCC25922, E. coli, antibiotic positive control): 0.9 µg/mL (≈ 2.79 µM)
 |  |  |  | COc1cc([C@@H]2c3cc4c(cc3[C@@H](O[C@@H]3O[C@@H]5CO[C@@H](C)O[C@H]5[C@H](O)[C@H]3O)[C@H]3COC(=O)[C@H]23)OCO4)cc(OC)c1O [Etoposide, reference compound] |  |  |  |  | IC50 at 48 h ([4]; A-549 lung carcinoma cells, A-549, cytotoxic positive control, read-out: Cytotoxicity IC50 A-549): 2300 nM; IC50 at 48 h ([4]; DLD-1 colon adenocarcinoma cells, DLD-1, cytotoxic positive control, read-out: Cytotoxicity IC50 DLD-1): 2800 nM; IC50 at 48 h ([4]; WS1 skin fibroblasts, WS1, cytotoxic positive control, read-out: Cytotoxicity IC50 WS1): 19000 nM
 |  |  |  | COC(=O)[C@@H](N)CCCNC(N)=N[N+](=O)[O-] [L-NAME, reference compound] |  |  |  |  | inhibition at 1000 µM ([5]; Mus musculus, RAW264.7, 1 mM, positive control): 64.1%
 |  |  |  | C=C(C)[C@H]1CC=C(C)CC1 [Limonene] |  |  |  |  | Antibacterial IC50 S. aureus [2, 14]: >200 µg/mL; Antibacterial IC50 E. coli [3, 15]: >200 µg/mL; Cytotoxicity IC50 DLD1 [6]: 31 ± 3 µg/mL; Cytotoxicity IC50 A549 [8]: 71 ± 6 µg/mL; Anti-Inflammation IC50 [5]: >200 µg/mL
 |  |  |  | O=c1c(O)c(-c2ccc(O)c(O)c2)oc2cc(O)cc(O)c12 [Quercetin, reference compound] | 0.043 (≈ 0.142 µM) |  |  |  | 
> 200 | > 200 |  | > 200 | CC1=CCC(O)(C(C)C)CC1 (stereo not shown) [Terpinen-4-ol] | > 200 | > 200 | > 200 | > 200 | 
> 200 | > 200 |  | > 200 | Cc1ccc(C(C)C)cc1 [p-Cymene] | > 200 | > 200 | > 200 | > 200 | 
 |  |  |  | C/C1=C\CC/C(C)=C/CC(C)(C)/C=C/C1 [α-Humulene] |  |  |  |  | Antioxidant IC50 [1]: >200 µg/mL; Antibacterial IC50 S. aureus [2, 14]: >200 µg/mL; Antibacterial IC50 E. coli [3, 15]: >200 µg/mL; Cytotoxicity IC50 DLD1 [6]: 43 ± 3 µg/mL; Cytotoxicity IC50 WS1 [7]: 24 ± 3 µg/mL; Cytotoxicity IC50 A549 [8]: 28 ± 1 µg/mL; Anti-Inflammation IC50 [5]: 15 ± 2 µg/mL
 |  | 28 to 112 (≈ 206 to 822 µM) | 30 ± 4 (≈ 220 µM) | CC1=CCC2CC1C2(C)C (stereo not drawn) [α-Pinene] | 3.4 ± 0.2 (≈ 25 µM) | 35 ± 6 | 58 ± 18 | 57 ± 4 | 
> 200 | > 200 | 28 to 112 (≈ 137 to 548 µM) | > 200 | C=C1CC/C=C(\C)CC[C@@H]2[C@@H]1CC2(C)C [β-Caryophyllene] | > 200 | 55 ± 5 | 97 ± 6 | 59 ± 7 | 

SMILES | IC50 [2, 9] [µg/mL] | IC50 [3, 10] [µg/mL] | IC50 at 48 h (in vitro) [µg/mL] | IC50 ([5]; Mus musculus, RAW264.7) [µg/mL] | IC50 [1] [µg/mL] | IC50 at 48 h [4, 11] [µg/mL] | IC50 at 48 h [4, 12] [µg/mL] | IC50 at 48 h [4, 13] [µg/mL] | also measured
CC1=CCC(=C(C)C)CC1 [Terpinolene] |  |  |  | > 200 |  |  |  |  | IC50 [2, 16]: > 200 µg/mL; IC50 [3, 17]: > 200 µg/mL; IC50 at 48 h [4, 18]: > 200 µg/mL; IC50 at 48 h [4, 19]: > 200 µg/mL; IC50 at 48 h [4, 20]: > 200 µg/mL
CC1=CC=C(C(C)C)CC1 [α-Terpinene] |  |  | 28 to 112 (≈ 206 to 822 µM) | 46 ± 4 (≈ 338 µM) | > 200 |  |  |  | IC50 [2, 16]: > 200 µg/mL; IC50 [3, 17]: > 200 µg/mL; IC50 at 48 h [4, 18]: 63 ± 10 µg/mL; IC50 at 48 h [4, 19]: 73 ± 7 µg/mL; IC50 at 48 h [4, 20]: 53 ± 12 µg/mL
C=C1CCC2CC1C2(C)C (stereo not drawn) [β-Pinene] | > 200 | > 200 | 28 to 112 (≈ 206 to 822 µM) | 46 ± 9 (≈ 338 µM) | > 200 |  |  |  | IC50 at 48 h [4, 18]: 43 ± 4 µg/mL; IC50 at 48 h [4, 19]: 49.4 ± 0.3 µg/mL; IC50 at 48 h [4, 20]: 29 ± 14 µg/mL
CC1=CCC(C(C)C)=CC1 [γ-Terpinene] |  |  | 28 to 112 (≈ 206 to 822 µM) | > 200 |  |  |  |  | IC50 [2, 16]: 50 ± 9 µg/mL (≈ 367 µM); IC50 [3, 17]: > 200 µg/mL; IC50 at 48 h [4, 18]: 112 ± 15 µg/mL; IC50 at 48 h [4, 19]: > 200 µg/mL; IC50 at 48 h [4, 20]: 82 ± 15 µg/mL
